Source: ChEMBL document CHEMBL1201862, “PubChem BioAssay data set” (2004)
Activity calls are given as the source filed them.

Assays:
[1] = biological target: T1, Corticotropin-releasing factor receptor 2/Corticotropin-releasing factor-binding protein (Homo sapiens, UniProt P24387+Q13324); experiment: Dose Response confirmation of uHTS hits for small molecule antagonists of the CRF-binding protein and CRF-R2 receptor complex.; assay type: functional; settings: read-out: IC50_Mean
T1 sequence (Q13324 whole entry): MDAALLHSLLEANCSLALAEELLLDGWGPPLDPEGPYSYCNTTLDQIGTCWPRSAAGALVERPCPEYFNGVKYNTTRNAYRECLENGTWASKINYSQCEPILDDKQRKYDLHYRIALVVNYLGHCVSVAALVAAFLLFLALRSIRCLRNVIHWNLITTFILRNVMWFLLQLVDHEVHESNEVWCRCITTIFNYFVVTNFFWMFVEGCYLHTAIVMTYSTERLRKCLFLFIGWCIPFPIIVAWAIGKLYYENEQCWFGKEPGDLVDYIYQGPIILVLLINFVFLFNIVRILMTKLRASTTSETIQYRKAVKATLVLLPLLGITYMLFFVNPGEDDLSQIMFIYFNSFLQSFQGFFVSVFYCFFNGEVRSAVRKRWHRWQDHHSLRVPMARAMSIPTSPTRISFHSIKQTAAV
T1 sequence (P24387 whole entry): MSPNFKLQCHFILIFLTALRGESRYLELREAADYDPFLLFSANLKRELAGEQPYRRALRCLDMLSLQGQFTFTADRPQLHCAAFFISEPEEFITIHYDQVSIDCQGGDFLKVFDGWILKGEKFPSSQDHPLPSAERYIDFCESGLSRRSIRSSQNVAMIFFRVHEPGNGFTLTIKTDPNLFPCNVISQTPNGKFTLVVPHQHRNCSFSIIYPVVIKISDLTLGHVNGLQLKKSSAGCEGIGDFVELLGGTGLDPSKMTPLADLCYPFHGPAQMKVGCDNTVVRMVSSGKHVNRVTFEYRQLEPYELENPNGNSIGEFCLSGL

[2] = biological target: T1, Corticotropin-releasing factor receptor 2/Corticotropin-releasing factor-binding protein; experiment: activators of CRF receptor 2 with binding protein – uHTS hits, confirmation (AID 602473); assay type: functional; settings: read-out: EC50_Mean
[3] = biological target: FAD-linked sulfhydryl oxidase ALR (Homo sapiens, UniProt P55789); experiment: inhibitors of human ALR sulfhydryl oxidase, dose response, biochemical, H2O2 detection, luminescence, cherry-pick (AID 493248)
FAD-linked sulfhydryl oxidase ALR, sequence (P55789 whole entry): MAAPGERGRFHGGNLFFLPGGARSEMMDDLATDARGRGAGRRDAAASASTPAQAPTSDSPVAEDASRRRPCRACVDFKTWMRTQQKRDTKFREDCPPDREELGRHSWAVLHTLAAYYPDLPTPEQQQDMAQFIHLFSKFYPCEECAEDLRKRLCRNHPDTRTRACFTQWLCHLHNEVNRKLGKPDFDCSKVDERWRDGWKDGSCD

[4] = biological target: T2, Calpain-2 catalytic subunit (Sus scrofa, UniProt P43367); experiment: pig calpain II inhibitor potency, dose response, biochemical, fluorogenic peptide substrate (AID 1420); assay type: functional
T2 sequence (P43367 whole entry): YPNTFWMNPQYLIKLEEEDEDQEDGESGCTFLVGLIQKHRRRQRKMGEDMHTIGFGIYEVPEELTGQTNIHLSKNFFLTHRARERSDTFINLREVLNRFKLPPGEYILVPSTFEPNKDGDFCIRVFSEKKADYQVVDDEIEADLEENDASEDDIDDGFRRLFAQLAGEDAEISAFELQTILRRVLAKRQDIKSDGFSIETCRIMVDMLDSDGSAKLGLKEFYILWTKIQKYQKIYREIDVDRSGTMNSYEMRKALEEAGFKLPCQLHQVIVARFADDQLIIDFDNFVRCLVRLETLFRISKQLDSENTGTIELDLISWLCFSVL

[5] = biological target: T3, Replicative DNA helicase DnaB (Mycobacterium tuberculosis, UniProt P9WMR3); experiment: DnaB intein splicing inhibitors, dose response, biochemical, cell-free fluorescence (AID 449749); assay type: functional
T3 sequence (P9WMR3 whole entry): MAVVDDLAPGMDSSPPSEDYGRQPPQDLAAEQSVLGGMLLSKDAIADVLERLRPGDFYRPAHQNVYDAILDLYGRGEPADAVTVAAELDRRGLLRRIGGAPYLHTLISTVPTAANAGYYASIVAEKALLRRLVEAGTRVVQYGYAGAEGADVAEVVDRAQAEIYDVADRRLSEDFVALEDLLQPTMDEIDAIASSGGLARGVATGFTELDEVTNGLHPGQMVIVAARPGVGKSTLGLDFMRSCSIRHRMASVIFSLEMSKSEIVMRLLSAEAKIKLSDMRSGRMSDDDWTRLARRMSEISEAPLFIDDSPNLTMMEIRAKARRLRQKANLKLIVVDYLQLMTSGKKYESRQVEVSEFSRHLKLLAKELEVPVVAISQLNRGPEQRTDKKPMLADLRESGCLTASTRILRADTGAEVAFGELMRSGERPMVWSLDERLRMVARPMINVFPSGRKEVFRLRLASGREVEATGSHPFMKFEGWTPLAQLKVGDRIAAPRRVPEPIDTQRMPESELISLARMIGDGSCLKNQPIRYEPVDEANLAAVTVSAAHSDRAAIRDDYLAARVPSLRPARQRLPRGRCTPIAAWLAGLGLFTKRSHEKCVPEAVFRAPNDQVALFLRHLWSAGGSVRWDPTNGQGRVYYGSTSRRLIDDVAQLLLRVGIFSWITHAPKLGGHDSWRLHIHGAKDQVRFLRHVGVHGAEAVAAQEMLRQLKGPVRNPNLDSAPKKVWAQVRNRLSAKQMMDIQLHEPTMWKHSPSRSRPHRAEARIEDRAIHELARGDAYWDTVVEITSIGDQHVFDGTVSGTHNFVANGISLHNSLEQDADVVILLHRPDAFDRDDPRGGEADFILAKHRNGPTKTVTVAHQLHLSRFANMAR

[6] = biological target: T4, Protein RecA (Mycobacterium tuberculosis, UniProt P9WHJ3); experiment: Fluorescence Cell-Free Homogeneous Dose Retest to Identify Inhibitors of RecA-Intein Splicing Activity. [Related pubchem assays (depositor defined):AID2097, AID2223, AID489010, AID492950]; assay type: functional
T4 sequence (P9WHJ3 whole entry): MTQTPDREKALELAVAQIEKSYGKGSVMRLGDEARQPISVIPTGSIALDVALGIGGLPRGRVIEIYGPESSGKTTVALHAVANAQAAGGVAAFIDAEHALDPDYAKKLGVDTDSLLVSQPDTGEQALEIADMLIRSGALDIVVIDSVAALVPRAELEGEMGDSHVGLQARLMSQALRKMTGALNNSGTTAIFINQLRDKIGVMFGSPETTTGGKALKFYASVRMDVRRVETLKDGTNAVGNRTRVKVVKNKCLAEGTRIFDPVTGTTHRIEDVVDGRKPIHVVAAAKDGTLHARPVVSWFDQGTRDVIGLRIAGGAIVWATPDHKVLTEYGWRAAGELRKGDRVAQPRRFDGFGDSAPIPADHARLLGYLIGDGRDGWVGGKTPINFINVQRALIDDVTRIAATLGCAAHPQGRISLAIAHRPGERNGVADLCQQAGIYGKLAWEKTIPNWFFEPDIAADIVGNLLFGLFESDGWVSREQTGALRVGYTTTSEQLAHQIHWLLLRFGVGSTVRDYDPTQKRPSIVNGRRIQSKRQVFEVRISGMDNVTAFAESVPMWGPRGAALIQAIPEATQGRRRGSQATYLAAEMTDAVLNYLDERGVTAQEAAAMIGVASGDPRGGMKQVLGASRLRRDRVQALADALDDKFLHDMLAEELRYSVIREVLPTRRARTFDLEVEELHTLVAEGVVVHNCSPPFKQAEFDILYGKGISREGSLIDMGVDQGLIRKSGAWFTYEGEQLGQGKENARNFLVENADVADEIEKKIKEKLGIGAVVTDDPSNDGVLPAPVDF

[7] = P. falciparum Dd2 growth inhibitors, dose response, SYBR Green, cherry-picked samples (AID 1159567); assay type: functional, cell-based
[8] = tested on: H4; experiment: Luminescence Cell-Based Dose Response HTS to Identify Activators of 5'UTR Stem-Loop Driven Prion Protein mRNA Translation in H4 Neuroglioblastoma Cells. [Related pubchem assays: 1829 (Project Summary), 1814 (Primary HTS)]; assay type: functional; settings: Homo sapiens
[9] = Luminescence Cell-Based Dose Confirmation HTS to Identify Inhibitors of Platelet Dense Granule Release. [Related pubchem assays: 1663 (Primary HTS), 1678 (Summary of Project)]; assay type: functional
[10] = biological target: Luciferin 4-monooxygenase (Photinus pyralis, UniProt P08659); experiment: firefly luciferase enzyme inhibitors, dose response, biochemical, luminescence (AID 1891)
Luciferin 4-monooxygenase, sequence (P08659 whole entry): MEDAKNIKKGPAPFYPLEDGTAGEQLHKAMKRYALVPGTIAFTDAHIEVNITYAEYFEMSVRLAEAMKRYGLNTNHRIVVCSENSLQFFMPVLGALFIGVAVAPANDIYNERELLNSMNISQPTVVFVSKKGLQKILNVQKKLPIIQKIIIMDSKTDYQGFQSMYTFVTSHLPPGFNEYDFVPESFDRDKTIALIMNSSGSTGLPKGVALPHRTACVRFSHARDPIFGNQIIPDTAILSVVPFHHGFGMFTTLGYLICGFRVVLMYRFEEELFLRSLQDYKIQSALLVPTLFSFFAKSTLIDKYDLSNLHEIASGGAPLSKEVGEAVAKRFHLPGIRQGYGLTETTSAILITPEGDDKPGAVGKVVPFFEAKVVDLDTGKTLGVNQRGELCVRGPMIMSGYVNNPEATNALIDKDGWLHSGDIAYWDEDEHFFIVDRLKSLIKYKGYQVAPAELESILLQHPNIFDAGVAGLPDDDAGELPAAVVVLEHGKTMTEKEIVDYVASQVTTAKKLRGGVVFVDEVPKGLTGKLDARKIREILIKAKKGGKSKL

[11] = Luminescence Cell-Based Dose Retest to Confirm Inhibitors of Cancer Stem Cells. [Related pubchem assays (depositor defined):AID2717, AID2721]; assay type: functional; settings: Homo sapiens
[12] = tested on: INS1; experiment: beta cell apoptosis inhibitors, cytokine rescue, dose response, luminescence, retest (AID 449756); assay type: functional, cell-based; settings: Rattus norvegicus;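 also: cell death triggered by IL-1 beta plus TNF-alpha plus IFN-gamma mixture; protective hits raise ATP signal compared with cytokine alone wells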
[13] = biological target: T5, Heat shock factor protein 1 (Mus musculus, UniProt P38532); experiment: HSF1 potentiators in luciferase reporter cells, confirmation, cell-based, NIH3T3, luminescence, dose retest (AID 435004); assay type: functional;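 also: stress induced by proteasome inhibitor MG132 added 30 min after compound; luciferase reporter driven by HSF1 response element in NIH3T3 cells; actives raise luminescence as potentiators of the MG132 stress response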
T5 sequence (P38532 whole entry): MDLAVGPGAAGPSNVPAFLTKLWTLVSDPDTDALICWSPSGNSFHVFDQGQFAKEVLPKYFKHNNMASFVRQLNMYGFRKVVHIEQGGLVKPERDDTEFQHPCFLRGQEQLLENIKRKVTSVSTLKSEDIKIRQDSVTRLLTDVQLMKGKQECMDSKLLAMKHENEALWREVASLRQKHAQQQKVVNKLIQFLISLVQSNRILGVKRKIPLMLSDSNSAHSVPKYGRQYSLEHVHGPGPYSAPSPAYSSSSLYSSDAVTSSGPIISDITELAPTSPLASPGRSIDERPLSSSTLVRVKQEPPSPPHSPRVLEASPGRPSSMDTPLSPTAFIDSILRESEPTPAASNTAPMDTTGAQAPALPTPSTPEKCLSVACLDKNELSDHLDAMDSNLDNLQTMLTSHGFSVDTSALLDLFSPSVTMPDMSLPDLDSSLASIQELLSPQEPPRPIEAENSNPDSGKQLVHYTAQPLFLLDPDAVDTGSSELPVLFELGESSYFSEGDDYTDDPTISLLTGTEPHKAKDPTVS

[14] = biological target: Paired box protein Pax-8 (Homo sapiens, UniProt Q06710); experiment: inhibitors of PAX8-driven TPO luciferase reporter, dose response, RMG-I cells, cherry-pick (AID 687027); assay type: functional, cell-based;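 also: luciferase reporter driven by Pax8 target thyroperoxidase promoter measured by SteadyGlo luminescence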
Paired box protein Pax-8, sequence (Q06710 whole entry): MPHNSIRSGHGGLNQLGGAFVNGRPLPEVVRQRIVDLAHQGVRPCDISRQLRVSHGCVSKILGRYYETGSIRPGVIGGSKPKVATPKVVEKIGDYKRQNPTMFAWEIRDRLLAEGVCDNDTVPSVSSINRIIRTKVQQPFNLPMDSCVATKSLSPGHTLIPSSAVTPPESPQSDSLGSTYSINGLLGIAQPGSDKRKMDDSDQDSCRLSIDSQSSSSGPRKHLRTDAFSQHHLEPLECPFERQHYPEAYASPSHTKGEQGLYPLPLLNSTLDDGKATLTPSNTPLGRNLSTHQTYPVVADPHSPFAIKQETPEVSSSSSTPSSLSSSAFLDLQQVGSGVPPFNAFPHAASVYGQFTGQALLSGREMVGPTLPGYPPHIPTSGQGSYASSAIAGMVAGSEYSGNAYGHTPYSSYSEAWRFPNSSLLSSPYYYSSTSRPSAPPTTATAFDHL

Compound: CNc1nc(Cl)nc(Nc2ccccc2)n1
- IC50 [1]: > 47.1 µM (inactive)
- EC50 [2]: > 53 µM (inactive)

Compound: COc1ccc(Nc2c(-c3ccc(C)cc3)nc3cnccn23)cc1
- AC50 [3]: 0.763 µM (active)
- IC50 [4]: > 50 µM (not active)

Compound: COc1cccc(NC(=O)COC(=O)c2ccccc2C(=O)N2CCN(c3ccccc3)CC2)c1
- IC50 [1]: > 47.1 µM (inactive)
- EC50 [2]: > 53 µM (inactive)

Compound: O=[N+]([O-])c1cccc2c([As](=O)(O)O)cccc12
- AC50 [5]: 16.4 µM (active)
- EC50 [6]: 10.1 µM (active)

Compound: O=C(c1ccc(F)cc1)N1CC(=O)N2[C@H](CO)[C@H](c3ccc(C#Cc4ccc(F)cc4)cc3)[C@H]2C1
- AC50 [7]: 4.05 µM (active)

Compound: COc1ccc(C(=O)Nc2ccccc2C(=O)N/N=C/c2cccc3ccccc23)cc1
- EC50 [8]: > 120 µM (not active)
- EC50 [9]: 1.15 µM (active)
- EC50 [10]: 1.35 µM (active)

Compound: CN(C)c1ccc2nsnc2c1[N+](=O)[O-]
- AC50 [5]: > 380 µM (inactive)
- EC50 [6]: 8.64 µM (active)

Compound: C[C@H](CO)N1C[C@H](C)[C@H](CN(C)S(=O)(=O)c2ccccc2)Oc2ccc(NC(=O)Cc3cn(C)c4ccccc34)cc2C1=O
- AC50 [7]: 3.2 µM (active)

Compound: O=C(O)c1cccc2c3c([nH]c12)CCCC3
- AC50 [3]: 5.66 µM (active)

Compound: CC(C)NC(=O)N1[C@H](C#N)[C@H](c2ccc(-c3ccc(F)cc3)cc2)[C@@H]1CO
- AC50 [7]: 4.17 µM (active)

Compound: N#Cc1c(NC(=O)c2ccccc2)sc2c1CCC2
- EC50 [8]: 12.6 µM (active)

Compound: Cc1n[nH]c2c1C(c1ccoc1)C(C#N)=C(N)O2 (stereo not drawn)
- AC50 [5]: 5.36 µM (active)
- EC50 [6]: 2.25 µM (active)

Compound: COc1cccc(NC(=O)N(C)C[C@H]2Oc3ncc(/C=C/c4ccccc4)cc3C(=O)N([C@@H](C)CO)C[C@@H]2C)c1
- AC50 [7]: 6.14 µM (active)

Compound: CCc1ccc(S(=O)(=O)Nc2ccc(O)c3ccccc23)cc1
- AC50 [11]: 5.13 µM (active)
- AC50 [12]: 8.73 µM (active)
- AC50 [5]: 0.305 µM (active)
- EC50 [6]: 0.0482 µM (active)

Compound: O=C(O)CCC(=O)NCCn1c(-c2ccccc2)cs/c1=N\c1ccccc1
- AC50 [3]: 22.3 µM (active)
- EC50 [13]: > 260 µM (inactive)

Compound: COc1cccc(Nc2ccccc2C(=O)O)c1
- AC50 [3]: 3.35 µM (active)

Compound: Cc1cccc(COc2ccc(/C=N/NC(=O)c3nnn(-c4nonc4N)c3COc3ccc(F)cc3)cc2)c1
- EC50 [8]: 61.7 µM (active)

Compound: CCS(=O)(=O)N1CC2(CN(Cc3ccccc3F)[C@@H](CO)c3[nH]c4cc(OC)ccc4c32)C1
- AC50 [7]: 9.94 µM (active)

Compound: N#C[C@@H]1[C@H](c2ccc(C#CC3CCCCC3)cc2)[C@H](CO)N1C(=O)Nc1ccc(F)cc1
- AC50 [7]: 5.43 µM (active)

Compound: O=C(c1c[nH]c2ccccc12)N1CCN(c2ccccc2)CC1
- AC50 [3]: 4.16 µM (active)

Compound: Cc1n[nH]c2c1C(c1cc(Br)cs1)C(C#N)=C(N)O2 (stereo not drawn)
- EC50 [13]: 14.6 µM (active)
- AC50 [5]: 12.7 µM (active)
- EC50 [6]: 6.13 µM (active)

Compound: C[C@@H]1CCCCO[C@H](CN(C)Cc2ccc(Cl)c(Cl)c2)[C@H](C)CN([C@@H](C)CO)C(=O)c2cc(NC(=O)Nc3ccccc3)ccc2O1
- AC50 [14]: 8.42 µM (active)

Compound: NC(=O)NC(=O)C(Nc1ccc(N2CCCCC2)cc1)c1ccccc1 (stereo not drawn)
- AC50 [3]: 0.797 µM (active)

Compound: O=C(Nc1nc(-c2cccs2)c(-c2cccs2)s1)C1(c2ccccc2)CC1
- AC50 [14]: 51.1 µM (active)
